# Measurements: US20260355079A1, “Oral Care Compositions Comprising Hops Beta Acids And Fluoride Ions” (priority 2019, published 2026)
# Test system: 3-day biofilm (plaque biofilm)
# Assay: in vitro plaque glycolysis model (iPGRM): acid production and acid (glycolysis) inhibition
# Format: cell-based, plaque microorganisms from pooled human saliva
# Conditions: TABLE 2; 2 min treatment, slurry in water (1:5)
# Experimental: Acid Production and Acid Inhibition [%]
# Acid production and acid inhibition were determined with the in vitro plaque glycolysis model (iPGRM). The purpose of this technique is to provide a simple and quick method for determining if compounds have an influence on the metabolic pathways that plaque microorganisms utilize to produce toxins that adversely affect gingival health.
# The in vitro plaque glycolysis model (iPGRM) is a technique in which plaque is grown from human saliva and treated with various agents to determine anti-glycolytic activity of treatments. When bacteria convert sugar into energy with the help of enzymes, acids are formed. These acids demineralize and damage the dental enamel. The purpose of this technique is to provide a simple and quick method for determining if treatment compounds have an inhibitory effect on the metabolic pathways that plaque microorganisms utilize for the production of acids or toxins and/or inhibit their growth. […]
# […] The pH of the media solutions was then measured to determine the amount of glycolysis inhibition relative to a negative control.
# On Day 1, new glass rods (5 mm×90 mm) were polished approximately 25 mm from the un-tapered end on a lathe with silicon carbide paper of 240, 320, 400, and 600 grit used sequentially. […] After polishing, rods were stored until ready to run test. […]
smiles,measurement,value
[H]/N=C(\N/C(=N/[H])NCCCCCCNC(=N)NC(=N)Nc1ccc(Cl)cc1)Nc1ccc(Cl)cc1 [Chlorhexidine],"Acid Production (ΔpH), Mean",0.30
